Measurements as given in patent publication US8791102B2, “Acetanilide sphingosine-1-phosphate receptor antagonists” (Exelixis, Inc., priority 2008, dated 2014).

What follows are compounds tested against T1, human S1P1 receptors (Homo sapiens, UniProt P21453) (assay: S1P1R antagonist assay (fluorescent membrane potential dye, cAMP readout)). Conditions: HEK293 cells expressing human S1P1 receptors and CNG channel; 500 nM NECA; S1P1R agonist 10 nM; 90 minutes; read-out: EC50 or IC50 value.
T1 construct: host or cells: HEK293
T1 sequence (P21453 whole entry): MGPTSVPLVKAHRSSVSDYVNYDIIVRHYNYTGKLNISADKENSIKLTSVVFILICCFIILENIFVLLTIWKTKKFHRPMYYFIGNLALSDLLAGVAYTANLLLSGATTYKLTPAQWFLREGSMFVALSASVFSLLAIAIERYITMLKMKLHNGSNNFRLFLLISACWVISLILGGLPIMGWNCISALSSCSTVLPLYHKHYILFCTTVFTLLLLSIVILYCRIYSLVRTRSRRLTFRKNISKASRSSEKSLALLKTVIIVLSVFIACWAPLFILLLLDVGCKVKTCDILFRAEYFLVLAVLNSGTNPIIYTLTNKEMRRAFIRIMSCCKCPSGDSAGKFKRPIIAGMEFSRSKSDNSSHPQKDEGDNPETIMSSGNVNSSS
Assay type: cell-based
Text: The S1P1R antagonist assay is a fluorescent membrane potential dye measurement assay, indicative of intracellular cAMP changes due to G protein-coupled receptor activation. HEK293 cells engineered to express human S1P1 receptors and a cyclic nucleotide-gated (CNG) channel are obtained from BD Biosciences, 80300-250. The CNG channels are activated by elevated levels of cAMP, resulting in ion flux and cell membrane depolarization. Membrane depolarization is detected with a membrane potential dye. Stimulation of the cells with 5′-(N-ethylcarboxamido)adenosine (NECA), an A2b receptor agonist (Sigma, E2387), elicits an A2bR-dependent increase in cAMP.
Subsequent exposure of the cells to a S1P1R agonist suppresses the NECA induced increase in cAMP through S1P1R-specific signaling by inhibiting adenylyl cyclase and the formation of cAMP from ATP. The degree to which a test compound overcomes the S1P1R agonist suppression of the NECA induced increase in cAMP is a measure of S1P1R antagonist activity. Antagonist activity is quantified as the IC50 (i.e., the concentration needed to elicited one-half of the maximum response of the test compound) and/or as the EC50 (i.e., the concentration needed to elicited one-half of the NECA induced stimulation).
Day 1: Freshly thawed cells were plated into 384-well plates (Corning, 3683) at a density of 14,000 cells/well in 20 μL, complete media and incubated for 16 hours at 37° C., 5% CO2 and 99% relative humidity. Complete media included Dulbecco's modified Eagle's medium (Invitrogen, 11965-092), 10% Fetal bovine serum (Hyclone, SH30071.03), 250 μg/mL geneticin (Invitrogen, 10131-027), and 1 μg/mL Puromycin (Fluka, 82595).
Day 2: Membrane potential dye (20 μL, BD Biosciences, 341833) was added to each well and the plates were incubated for 2.5 hours at ambient temperature. Test compounds (20 μL) were added to the wells at various concentrations (≦10 μM, 1 to 3 dilutions) in a NECA base solution and incubated for 90 minutes in the presence of the S1P1R agonist {4-((4-phenyl-5-trifluoromethyl-2-thienyl)methoxy)benzyl}-3-azetidinecarboxylic acid (10 nM). The NECA-base solution contained Dulbecco's phosphate-buffered saline (Invitrogen, 14190-136), 2.5% DMSO (Fluka, 41648), 25 μM Ro 20-1724 (Sigma, B8279), and 500 nM NECA).
Assay plates were read with a PerkinElmer EnVision reader (Excitation 350 nm, Emission 590 nm) at time T=0 minutes, before compound addition and at time T=90 minutes. The signal was calculated as the ratio T90/T0. Data was analyzed in ActivityBase XE and graphs showing log of compound concentration (X-axis) vs. % activity (Y-axis) were generated for IC50 determinations. Percent activity was calculated with the following formula: (Signal−Agonist Control Signal)/(NECA Control Signal−Agonist Control Signal)×100.

Compound	IC50
O=C(Cc1c[nH]cn1)N[C@@H](COCc1ccccc1)c1nc2cc(Oc3ccc(F)cc3)ccc2[nH]1 [Compound 59, (R)—N-(2-(benzyloxy)-1-(5-(4-fluorophenoxy)-1H-benzo[d]imidazol-2-yl)ethyl)-2-(1H-imidazol-4-yl)acetamide]	300 to 1000 nM
CC(=O)N[C@@H](COCc1ccccc1)c1nc2cc(Oc3ccc(F)cc3)ccc2[nH]1 [Compound 60, (R)—N-(2-(benzyloxy)-1-(5-(4-fluorophenoxy)-1H-benzo[d]imidazol-2-yl)ethyl)acetamide]	> 1000 nM
CC1CCCN1CC(=O)N[C@@H](COCc1ccccc1)C(=O)Nc1ccc(Oc2ccc(F)cc2)cc1 (stereo partly drawn) [Compound 63, (2S)-3-(benzyloxy)-N-(4-(4-fluorophenoxy)phenyl)-2-(2-(2-methylpyrrolidin-1-yl)acetamido)propanamide]	> 1000 nM
O=C(Nc1ccc(Oc2ccc(F)cc2)cc1)[C@@H]1C[C@@H](Cc2ccc(Cl)s2)CN1C(=O)Cn1ccnn1 [Compound 65, (2S,4S)-1-(2-(1H-1,2,3-triazol-1-yl)acetyl)-4-((5-chlorothien-2-yl)methyl)-N-(4-(4-fluorophenoxy)phenyl)pyrrolidine-2-carboxamide]	≤ 300 nM
O=C(Nc1ccc(Oc2ccc(F)cc2)cc1)[C@@H]1C[C@@H](Cc2ccc(Cl)s2)CN1C(=O)Cn1nccn1 [Compound 66, (2S,4S)-1-(2-(2H-1,2,3-triazol-2-yl)acetyl)-4-((5-chlorothien-2-yl)methyl)-N-(4-(4-fluorophenoxy)phenyl)pyrrolidine-2-carboxamide]	≤ 300 nM
O=C(Nc1ccc(Oc2ccc(F)cc2)cc1)[C@@H]1C[C@@H](Cc2ccc(Cl)s2)CN1C(=O)Cn1cncn1 [Compound 67, (2S,4S)-1-(2-(1H-1,2,4-triazol-1-yl)acetyl)-4-((5-chlorothien-2-yl)methyl)-N-(4-(4-fluorophenoxy)phenyl)pyrrolidine-2-carboxamide]	≤ 300 nM

Further lines, results first:

IC50	Compound
≤ 300 nM	O=C(Nc1ccc(Oc2ccc(F)cc2)cc1)[C@@H]1C[C@@H](Cc2ccccc2Cl)CN1C(=O)Cn1nccn1 [Compound 56, (2S,4R)-1-(2-(2H-1,2,3-triazol-2-yl)acetyl)-4-(2-chlorobenzyl)-N-(4-(4-fluorophenoxy)phenyl)pyrrolidine-2-carboxamide]
≤ 300 nM	O=C(Nc1ccc(Oc2ccc(F)cc2)cc1)[C@@H]1C[C@@H](Cc2ccccc2Cl)CN1C(=O)Cn1cncn1 [Compound 57, (2S,4R)-1-(2-(1H-1,2,4-triazol-1-yl)acetyl)-4-(2-chlorobenzyl)-N-(4-(4-fluorophenoxy)phenyl)pyrrolidine-2-carboxamide]
≤ 300 nM	O=C(Nc1ccc(Oc2ccc(F)cc2)cc1)[C@@H]1C[C@@H](Cc2ccccc2)CN1C(=O)Cn1nccn1 [Compound 58, (2S,4R)-1-(2-(2H-1,2,3-triazol-2-yl)acetyl)-4-benzyl-N-(4-(4-fluorophenoxy)phenyl)pyrrolidine-2-carboxamide]
≤ 300 nM	O=C(Nc1ccc(Oc2ccc(F)cc2)cc1)[C@@H]1C[C@@H](Cc2cccc(Cl)c2)CN1C(=O)Cn1cncn1 [Compound 61, (2S,4R)-1-(2-(1H-1,2,4-triazol-1-yl)acetyl)-4-(3-chlorobenzyl)-N-(4-(4-fluorophenoxy)phenyl)pyrrolidine-2-carboxamide]
≤ 300 nM	COc1ccc([C@@H]2C[C@@H](C(=O)Nc3ccc(Oc4ccc(F)cc4)cc3)N(C(=O)Cn3cncn3)C2)cc1 [Compound 62, (2S,4S)-1-(2-(1H-1,2,4-triazol-1-yl)acetyl)-N-(4-(4-fluorophenoxy)phenyl)-4-(4-methoxyphenyl)pyrrolidine-2-carboxamide]
≤ 300 nM	O=C(Nc1ccc(Oc2ccc(F)cc2)cc1)[C@@H]1C[C@@H](Cc2cccs2)CN1C(=O)Cn1nccn1 [Compound 64, (2S,4S)-1-(2-(2H-1,2,3-triazol-2-yl)acetyl)-N-(4-(4-fluorophenoxy)phenyl)-4-(thien-2-ylmethyl)pyrrolidine-2-carboxamide]
